Reference: ChEMBL document CHEMBL4138292, “Metabolomics-Guided Discovery of Microginin Peptides from Cultures of the Cyanobacterium Microcystis aeruginosa” (J Nat Prod, 2018)

Target: Angiotensin-converting enzyme (Homo sapiens, UniProt P12821)
Assay: Inhibition of ACE (unknown origin) using hippuryl-L-histidyl-L-leucine as substrate preincubated with substrate for 30 mins followed by enzyme addition measured after 30 mins by LC/MS analysis

Sequence of Angiotensin-converting enzyme (P12821 whole entry): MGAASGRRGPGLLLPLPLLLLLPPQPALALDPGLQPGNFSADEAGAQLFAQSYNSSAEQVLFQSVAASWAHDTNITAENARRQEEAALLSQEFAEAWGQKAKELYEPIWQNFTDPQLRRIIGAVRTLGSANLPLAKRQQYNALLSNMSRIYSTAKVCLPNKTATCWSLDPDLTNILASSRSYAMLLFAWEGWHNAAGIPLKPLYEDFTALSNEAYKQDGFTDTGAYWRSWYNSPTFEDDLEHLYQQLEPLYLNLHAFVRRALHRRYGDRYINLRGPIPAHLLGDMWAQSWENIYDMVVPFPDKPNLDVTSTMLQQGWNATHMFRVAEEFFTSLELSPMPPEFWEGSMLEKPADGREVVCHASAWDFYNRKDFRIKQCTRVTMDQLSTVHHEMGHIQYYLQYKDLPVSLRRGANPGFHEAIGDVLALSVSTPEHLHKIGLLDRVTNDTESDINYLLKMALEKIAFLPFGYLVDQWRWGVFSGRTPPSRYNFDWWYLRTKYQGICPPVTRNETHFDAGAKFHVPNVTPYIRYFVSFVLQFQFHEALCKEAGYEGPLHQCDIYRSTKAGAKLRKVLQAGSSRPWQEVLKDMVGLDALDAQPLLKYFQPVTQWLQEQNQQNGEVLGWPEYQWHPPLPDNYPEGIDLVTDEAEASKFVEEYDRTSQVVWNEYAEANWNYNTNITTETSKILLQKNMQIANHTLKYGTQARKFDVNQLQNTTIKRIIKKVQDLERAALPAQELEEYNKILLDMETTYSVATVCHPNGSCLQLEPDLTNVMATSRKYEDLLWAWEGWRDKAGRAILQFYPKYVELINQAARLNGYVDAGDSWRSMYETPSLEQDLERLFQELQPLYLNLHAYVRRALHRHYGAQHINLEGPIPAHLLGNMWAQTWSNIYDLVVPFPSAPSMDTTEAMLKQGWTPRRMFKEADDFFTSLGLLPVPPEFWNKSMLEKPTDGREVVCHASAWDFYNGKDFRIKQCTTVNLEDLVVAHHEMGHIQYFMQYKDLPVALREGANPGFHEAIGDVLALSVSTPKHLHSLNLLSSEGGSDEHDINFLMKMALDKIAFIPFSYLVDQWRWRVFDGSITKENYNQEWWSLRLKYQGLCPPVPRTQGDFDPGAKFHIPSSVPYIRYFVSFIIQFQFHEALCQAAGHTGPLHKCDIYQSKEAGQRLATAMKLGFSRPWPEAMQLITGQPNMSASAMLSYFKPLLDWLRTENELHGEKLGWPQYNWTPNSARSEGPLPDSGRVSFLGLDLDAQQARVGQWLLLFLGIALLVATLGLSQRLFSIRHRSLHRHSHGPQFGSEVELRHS

**Q.** With `O=C(O)CN(CCN(CC(=O)O)CC(=O)O)CC(=O)O` [EDETIC ACID] as the molecule, how does the IC50 read?
**A.** 14 µM

**Q.** With `CCCCCCC[C@H](N)[C@H](O)C(=O)N[C@@H](C)C(=O)N[C@H](C(=O)O)C(C)C` as the molecule, how does the IC50 read?
**A.** 460 µM

**Q.** For `CCCCCCC[C@H](N)[C@H](O)C(=O)N(C)[C@@H](CC[S+](C)[O-])C(=O)N[C@@H](Cc1ccc(O)cc1)C(=O)O` (stereo partly drawn), which IC50 is on record?
**A.** 31 µM
